Results from patent publication US20260043020A1, “BINDING MEMBERS WITH ALTERED DIVERSITY SCAFFOLD DOMAINS” (priority 2016, published 2026).

Molecular target: T1, trypsin (Bos taurus, UniProt P00760)
T1 construct: gene PRSS1
T1 sequence (P00760 24-246): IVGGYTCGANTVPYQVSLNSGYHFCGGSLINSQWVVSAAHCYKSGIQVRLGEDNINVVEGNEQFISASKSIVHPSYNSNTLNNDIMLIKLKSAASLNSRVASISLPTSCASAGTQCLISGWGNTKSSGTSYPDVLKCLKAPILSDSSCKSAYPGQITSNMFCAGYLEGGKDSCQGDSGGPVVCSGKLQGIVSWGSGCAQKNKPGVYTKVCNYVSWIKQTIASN
Test: Polyclonal phage TRF binding assay on trypsin
Conditions: phage display; direct gene-III fusion or round-2 polyclonal phage
Experimental: Phage display technology facilitates isolation of binders to any given target from large combinatorial repertoires based on proteins and peptides that can be presented on the surface of filamentous phage^105. In order to isolate functional knottin-antibody fusions from the KnotBody libraries multiple rounds of phage display selections on trypsin (cognate antigen for the EETI-II donor) were carried out. Phage particles were prepared by rescuing KnotBody libraries using trypsin cleavable helper phage^102,106Two rounds of phage display selections were performed on 10 μg/ml biotinylated trypsin immobilised on Streptavidin (for Round-1) or Neutravidin (for round-2) coated Maxisorp™ immunotubes (Thermo Scientific, Cat No. 444202). In both rounds of selection, phage libraries were pre-incubated with streptavidin coated paramagnetic beads (Thermo Fisher Scientific, Cat. No. 11205D). […] Polyclonal phage preparations from round-2 selection outputs were analysed for trypsin binding using a time resolved fluorescence (TRF) binding assay. In this assay, polyclonal phage binding to biotinylated trypsin immobilised on neutravidin (Thermo Fisher Scientific, Cat. No 31000) coated Maxisorp™ plates (Thermo Scientific, Cat. No. 437111) was detected using a mouse anti-M13 antibody (GE Healthcare, Cat. No. 27-9420-01) followed by europium conjugated anti-mouse antibody (Perkin Elmer, Cat. No. AD0124). […]

For EETI-II, the “phage binding to trypsin” value was “no detectable binding”.
